Experimental data published in PubChem BioAssay AID1963986 (Molecular Pharmacology Branch, DTP, NCI, 2024).

Tested on: 171881-019-R-J1-PDC tumor spheroid viability
Experiment: Anticancer human tumor 171881-019-R-J1-PDC patient-derived invasive breast carcinoma cell line growth inhibition [PI3K]
Conditions: spheroids with HUVEC and MSC; for IC50: curve of first compound; for viability, T/C: stronger effect = lower value
Outline: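 Tumor cells grown as multi-cell spheroids with HUVEC endothelial cells and MSC fibroblast-like stroma were treated with targeted agents combined with inavolisib, alpelisib, duvelisib or copanlisib. Doses fell in half-log steps from near clinical Cmax, else from 10 microM. Viability was measured.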
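Note: spheroids exposed to compound for 7 days before viability read.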
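Throughout, for viability, T/C: 100% = DMSO vehicle-treated spheroids.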

`Cn1nccc1Nc1nccc(-c2ccn(C(CO)c3ccc(Cl)c(F)c3)c(=O)c2)n1` (configuration not stated) + Cc1nc(NC(=O)N2CCCC2C(N)=O)sc1-c1ccnc(C(C)(C)C(F)(F)F)c1 was tested, and the IC50 (second compound 0.0316 µM) was 297 nM, the IC50 (second compound 0.1 µM) was 140 nM and the IC50 (second compound 0.316 µM) was 34.9 nM. It also gave an IC50 (second compound 1 µM) of less than 31.6 nM, an IC50 (second compound 3.16 µM) of less than 31.6 nM and an IC50 (second compound 10 µM) of less than 31.6 nM. The viability, T/C (second compound 0.0316 µM, first compound 0.0316 µM) was 89.8%, the viability, T/C (second compound 0.0316 µM, first compound 0.1 µM) was 73.2% and the viability, T/C (second compound 0.0316 µM, first compound 0.316 µM) was 47.2%. For the same compound, the viability, T/C (second compound 0.0316 µM, first compound 1 µM) was 32.1%, the viability, T/C (second compound 0.0316 µM, first compound 3.16 µM) was 23.1% and the viability, T/C (second compound 0.0316 µM, first compound 10 µM) was 18.4%. The viability, T/C (second compound 0.1 µM, first compound 0.0316 µM) was 81%, the viability, T/C (second compound 0.1 µM, first compound 0.1 µM) was 55.8% and the viability, T/C (second compound 0.1 µM, first compound 0.316 µM) was 36.2%. The viability, T/C (second compound 0.1 µM, first compound 1 µM) was 24%, the viability, T/C (second compound 0.1 µM, first compound 3.16 µM) was 18.5% and the viability, T/C (second compound 0.1 µM, first compound 10 µM) was 16.2%. The viability, T/C (second compound 0.316 µM, first compound 0.0316 µM) was 51.1%, the viability, T/C (second compound 0.316 µM, first compound 0.1 µM) was 37.8% and the viability, T/C (second compound 0.316 µM, first compound 0.316 µM) was 22.6%. It also gave a viability, T/C (second compound 0.316 µM, first compound 1 µM) of 14.6%, a viability, T/C (second compound 0.316 µM, first compound 3.16 µM) of 10.9% and a viability, T/C (second compound 0.316 µM, first compound 10 µM) of 8.35%. The viability, T/C (second compound 1 µM, first compound 0.0316 µM) was 27.4%, the viability, T/C (second compound 1 µM, first compound 0.1 µM) was 20% and the viability, T/C (second compound 1 µM, first compound 0.316 µM) was 12.5%. For the same compound, the viability, T/C (second compound 1 µM, first compound 1 µM) was 7.16%, the viability, T/C (second compound 1 µM, first compound 3.16 µM) was 5.6% and the viability, T/C (second compound 1 µM, first compound 10 µM) was 4.92%. The viability, T/C (second compound 3.16 µM, first compound 0.0316 µM) was 12.3%, the viability, T/C (second compound 3.16 µM, first compound 0.1 µM) was 8.08% and the viability, T/C (second compound 3.16 µM, first compound 0.316 µM) was 4.7%. For the same compound, the viability, T/C (second compound 3.16 µM, first compound 1 µM) was 3.17%, the viability, T/C (second compound 3.16 µM, first compound 3.16 µM) was 2.1% and the viability, T/C (second compound 3.16 µM, first compound 10 µM) was 1.72%. The viability, T/C (second compound 10 µM, first compound 0.0316 µM) was 2.73%, the viability, T/C (second compound 10 µM, first compound 0.1 µM) was 2.2% and the viability, T/C (second compound 10 µM, first compound 0.316 µM) was 1.3%. It also gave a viability, T/C (second compound 10 µM, first compound 1 µM) of 0.88%, a viability, T/C (second compound 10 µM, first compound 3.16 µM) of 0.68% and a viability, T/C (second compound 10 µM, first compound 10 µM) of 0.53%.
